Assay results published in ChEMBL document CHEMBL3132824, “Discovery of novel pyridazinylthioacetamides as potent HIV-1 NNRTIs using a structure-based bioisosterism approach” (Medchemcomm, 2013).

Tests used:
[1] = Selectivity ratio of CC50 for HIV-1 3B mock-infected human MT4 cells to EC50 for HIV-1 3B infected in human MT4 cells; type: ADME, cell-based; settings: read-out: Ratio CC50/EC50
[2] = Cytotoxicity against HIV-1 3B mock-infected human MT4 cells assessed as reduction in cell viability by MTT assay; type: cell-based; settings: HIV-1 3B mock-infected MT4 cells
[3] = test system: Human immunodeficiency virus 2; test: Antiviral activity against HIV-2 ROD infected in human MT4 cells assessed as inhibition of virus-induced cytopathicity by MTT assay; type: functional, organism-based; settings: Human immunodeficiency virus 2, ISOLATE ROD
[4] = Cytotoxicity against HIV-2 ROD mock-infected human MT4 cells assessed as reduction in cell viability by MTT assay; type: cell-based; settings: HIV-2 ROD mock-infected MT4 cells
[5] = Selectivity ratio of CC50 for HIV-2 ROD mock-infected human MT4 cells to EC50 for HIV-2 ROD infected in human MT4 cells; type: ADME, cell-based; settings: read-out: Ratio CC50/EC50
[6] = test system: Human immunodeficiency virus 1; test: Antiviral activity against HIV-1 3B infected in human MT4 cells assessed as inhibition of virus-induced cytopathicity by MTT assay; type: functional, organism-based; settings: Human immunodeficiency virus 1, 3B
[7] = target: Human immunodeficiency virus type 1 reverse transcriptase (Human immunodeficiency virus 1, UniProt Q72547); test: Inhibition of purified recombinant HIV-1 reverse transcriptase assessed as inhibition of biotin-dUTP incorporation using poly(rC)-oligo(dG) as template primer

| SMILES | selectivity ratio [1] | CC50 [2] [µM] | EC50 [3] [µM] | CC50 [4] [µM] | selectivity ratio [5] | EC50 [6] [µM] | IC50 [7] [µM] |
| --- | --- | --- | --- | --- | --- | --- | --- |
| O=C(CSc1nnccc1-c1cccc2ccccc12)Nc1ccccc1 | 105 | 203 | > 174 | 174 | < 1 | 1.93 |  |
| O=C(CSc1nnccc1-c1cccc2ccccc12)Nc1cccnc1Cl | 573 | 156 | > 164 | 164 | < 1 | 0.27 |  |
| CC(C)Nc1cccnc1N1CCN(C(=O)c2cc3cc(NS(C)(=O)=O)ccc3[nH]2)CC1 [DELAVIRDINE] | > 1100 | > 36.2 |  | > 36.2 |  |  |  |
| Cc1ccnc2c1NC(=O)c1cccnc1N2C1CC1 [NEVIRAPINE] |  | > 15 |  | > 15 |  |  |  |
| Nc1ccn([C@H]2CC[C@@H](CO)O2)c(=O)n1 [ZALCITABINE] | > 93 | > 94.7 | 1.28 | > 94.7 | > 74 |  |  |
| O=C(CSc1nnccc1-c1cccc2ccccc12)N1CCc2ccccc2C1 | 29 | 34 | > 36.5 | 36.5 | < 1 | 1.15 |  |
| Cc1ccccc1NC(=O)CSc1nnccc1-c1cccc2ccccc12 | 130 | 142 | > 150 | 150 | < 1 | 1.09 |  |
| Cc1cn([C@H]2C[C@H](N=[N+]=[N-])[C@@H](CO)O2)c(=O)[nH]c1=O [ZIDOVUDINE] | 12200 |  | 0.0045 |  | 56900 | 0.021 |  |
| O=C1Nc2ccc(Cl)cc2[C@@](C#CC2CC2)(C(F)(F)F)O1 [EFAVIRENZ] | > 1190 | > 6.34 |  | > 6.34 |  |  |  |
| O=C(CSc1nnccc1-c1cccc2ccccc12)Nc1ccccc1[N+](=O)[O-] | 2150 | 99.9 | > 135 | 135 | < 1 | 0.046 | 4.06 |
| Cc1ccc(NC(=O)CSc2nnccc2-c2cccc3ccccc23)c([N+](=O)[O-])c1 | 1440 | 204 | > 244 | 244 | < 1 | 0.14 |  |
| Cc1ccc(NC(=O)CSc2nnccc2-c2cccc3ccccc23)c(Br)c1 | 929 | 182 | > 215 | 215 | < 1 | 0.2 |  |
| COC(=O)c1ccc(NC(=O)CSc2nnccc2-c2cccc3ccccc23)c(Br)c1 | 1110 | 159 | > 246 | > 246 | < 1 | 0.14 |  |
| O=C(CSc1nnccc1-c1cccc2ccccc12)Nc1ccc(Cl)cc1Cl | > 684 | > 284 | > 232 | 232 | < 1 | 0.42 |  |
| O=C(CSc1nnccc1-c1cccc2ccccc12)Nc1ccccc1Cl | 177 | 34.2 | > 35 | 35 | < 1 | 0.19 |  |
| O=C(CSc1nnccc1-c1cccc2ccccc12)Nc1ccccc1Br | 151 | 31.5 | > 31.3 | 31.3 | < 1 | 0.21 |  |
| O=C(CSc1nnccc1-c1cccc2ccccc12)N1CCCc2ccccc21 | < 1 | 34.5 | > 35 | 35 | < 1 | > 34.5 |  |
| CC(=O)c1ccc(NC(=O)CSc2nnccc2-c2cccc3ccccc23)c(Br)c1 | 370 | 46.3 | > 48.5 | 48.5 | < 1 | 0.13 |  |
| O=C(CSc1nnccc1-c1cccc2ccccc12)Nc1ccccc1F | 799 | 204 | > 241 | 241 | < 1 | 0.26 |  |
| O=C(CSc1nnccc1-c1cccc2ccccc12)c1ccc(Cl)cc1Cl | 10 | 54.6 | > 55 | 55 | < 1 | 5.46 |  |
| CCOC(=O)c1ccc(NC(=O)CSc2nnccc2-c2cccc3ccccc23)c(Br)c1 | 420 | 237 | > 239 | > 239 | < 1 | 0.56 |  |
